Experiments:
[1] = Free fraction (free of protein binding) of the PET radioligand; assay type: in vitro ADME; conditions: read-out: free fractions, free of protein binding
[2] = target: LPA1 (Rattus norvegicus, UniProt P61794); assay: In-vivo PET imaging in bleomycin treated rat model, LPA1 target engagement (% displacement); conditions: bleomycin treated rats
Experimental: (§1) [^18F]-(1S,3S)-3-(((6-(5-((((4-(fluoro)butyl)(methyl)carbamoyl)oxy)methyl)-1-methyl-1H-1,2,3-triazol-4-yl)-2-methylpyridin-3-yl)oxy)cyclohexane-1-carboxylic acid was tested to confirm its properties, specificity and targeting of the LPA1 receptor in aged-matched wild type (Sprague Dawley rat, Charles River Laboratory, PA) and bleomycin-induced pulmonary fibrosis rat models. The bleomycin-induced pulmonary fibrosis rat model was generated in anesthetized rats that were administered bleomycin (2 μL/g) via oropharyngeal instillation. For oropharyngeal instillation, anesthetized rats (isoflurane, 4% in 100% 02) were placed on a slanted board/tilting workstation and bleomycin was dripped onto the vocal cords, facilitating aspiration. Rats were then returned to their cages until they fully recovered from anesthesia and were monitored daily for the duration of the experiment. In this experiment, the [^18F]-labeled LPA1 antagonist, produced as described in the above Examples, was tested for its ability to discriminate between normal lung in wild type rats and increased lung LPA1 expression in the bleomycin rat disease model. The bleomycin treated rats were used at 14 and 15 days post bleomycin treatment. […] For PET image acquisition, rats were placed in an anesthetic induction chamber and 3% isoflurane inhalant anesthesia was delivered in 100% O2 at a rate of 1-1.5 L/min. Once sedated, the rats were removed from the induction chamber and placed into a plexiglass 2-chamber holder (custom-made by BMS-Applied Biotechnology group) within the gantry of the PET system (microPET® F220™, Siemens Preclinical Solutions, Knoxville, Tenn.) where they remained for the duration of the study. Anesthesia was maintained with 1-1.5% isoflurane inhalant anesthesia delivered in 100% 02 at a rate of 2 L/min via the nose-cone. Animals were kept warm using an external standalone temperature regulating unit (M2M Imaging Corp) to prevent hypothermia during imaging. Rat respiration was continuously monitored during imaging procedures and isoflurane was adjusted dependent on depth of anesthesia. A 10-minute transmission image was first acquired using a ^57Co point source for the purpose of attenuation correction of the final PET images and confirmation of lung localization for region of interest (ROI) analysis. The scanning region was located beginning at the neck area and extending toward the hind limbs of each animal in order to place the lungs within the 7.6 cm microPET system axial field of view (FOV). Upon completion of the transmission scan, each rat received administration of between 19.5-29.7 MBq (542-803 μCi) of [^18F]-(1S,3S)-3-(((6-(5-((((4-(fluoro)butyl)(methyl) carbamoyl)oxy)methyl)-1-methyl-1H-1,2,3-triazol-4-yl)-2-methylpyridin-3-yl)oxy)cyclohexane-1-carboxylic acid tracer via tail vein catheter followed by a 2 hour dynamic PET emission scan. […] Images were reconstructed using a maximum a posteriori (MAP) algorithm with attenuation correction using the collected transmission images and corrected for radioisotope decay. The PET images were then co-registered with corresponding transmission images using anatomical landmarks (air in lung) and boundaries of the animal holder. Images were analyzed by Inveon Research Workstation (Siemens Medical Solutions USA Inc., PA). Analysis for each rat was done with regions of interest (ROIs) drawn onto each whole lung and a section of the liver using the co-registered transmission images. There were 3-4 ROIs drawn for each lung volume (left whole lung and right whole lung) as well as 3 ROIs drawn on a section of the liver. ROIs were drawn inside the whole lung to avoid spillover signal from the heart and liver. ROIs were drawn on a section of the liver using the same method. Based on quantitative values from these ROIs (nCi/cc), % injected dose/cc (% ID/g) was calculated. Radiotracer uptake was compared across lung tissues in these groups using the time periods between 60-90 minutes post radioligand injection. […]

[3] = as above; conditions: Sprague Dawley, rat, lung, intravenous, bleomycin treated rats, baseline
Experimental: as §1

Sequence of LPA1 (P61794 whole entry): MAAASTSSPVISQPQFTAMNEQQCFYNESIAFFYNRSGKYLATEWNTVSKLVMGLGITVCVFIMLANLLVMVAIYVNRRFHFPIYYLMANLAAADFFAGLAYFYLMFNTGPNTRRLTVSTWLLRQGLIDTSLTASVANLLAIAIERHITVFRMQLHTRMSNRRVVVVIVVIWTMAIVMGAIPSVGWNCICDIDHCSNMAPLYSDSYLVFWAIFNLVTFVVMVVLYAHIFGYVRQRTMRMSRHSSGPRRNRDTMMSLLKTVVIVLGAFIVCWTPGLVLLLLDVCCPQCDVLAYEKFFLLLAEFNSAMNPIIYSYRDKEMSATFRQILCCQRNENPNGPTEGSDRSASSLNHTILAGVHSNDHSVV

## Cc1nc(-c2nnn(C)c2COC(=O)N(C)CCCC[18F])ccc1O[C@H]1CCC[C@H](C(=O)O)C1 [Example 16]
[1]
  fraction unbound: 0.05 to 0.11
[2]; Group 1 (1 mg/kg group, n=6), listed as [^18F]-(1S,3S)-3-(6-(5-((((4-(fluoro)butyl)(methyl)carbamoyl)oxy)methyl)-1-meth, 1 mg/kg))
  Baseline % ID/g in Lung, Mean: 0.12 % ID/g
[2]; Group 2 (3 mg/kg group, n=6), listed as [^18F]-(1S,3S)-3-(6-(5-((((4-(fluoro)butyl)(methyl)carbamoyl)oxy)methyl)-1-meth, 3 mg/kg))
  Baseline % ID/g in Lung, Mean: 0.10 % ID/g
[2]; Group 3 (10 mg/kg group, n=6), listed as [^18F]-(1S,3S)-3-(6-(5-((((4-(fluoro)butyl)(methyl)carbamoyl)oxy)methyl)-1-meth, 10 mg/kg))
  Baseline % ID/g in Lung, Mean: 0.12 % ID/g
[2]; Group 4 (30 mg/kg group, n=7), listed as [^18F]-(1S,3S)-3-(6-(5-((((4-(fluoro)butyl)(methyl)carbamoyl)oxy)methyl)-1-meth, 30 mg/kg))
  Baseline % ID/g in Lung, Mean: 0.09 % ID/g
[2]; Group 5 (100 mg/kg group, n=6), listed as [^18F]-(1S,3S)-3-(6-(5-((((4-(fluoro)butyl)(methyl)carbamoyl)oxy)methyl)-1-meth, 100 mg/kg))
  Baseline % ID/g in Lung, Mean: 0.10 % ID/g
[3]; 1 mg/kg, Group 1 (1 mg/kg group, n=6)
  tissue uptake: 0.12 ± 0.01 %ID/g
[3]; 3 mg/kg, Group 2 (3 mg/kg group, n=6)
  tissue uptake: 0.1 ± 0.01 %ID/g
[3]; 10 mg/kg, Group 3 (10 mg/kg group, n=6)
  tissue uptake: 0.12 ± 0.02 %ID/g
[3]; 30 mg/kg, Group 4 (30 mg/kg group, n=7)
  tissue uptake: 0.09 ± 0.01 %ID/g
[3]; 100 mg/kg, Group 5 (100 mg/kg group, n=6)
  tissue uptake: 0.1 ± 0.01 %ID/g

Reference: patent US20210379210A1, “RADIOLIGANDS FOR IMAGING THE LPA1 RECEPTOR” (BRISTOL-MYERS SQUIBB COMPANY, priority 2018, published 2021)
